System: rat hippocampal slices
Assay: Reduction of azide-induced ischemic efflux of glutamate in rat hippocampal slices
Type: cell-based
Conditions: versus control, statistically significant, read-out: reduction of glutamate release (azide-induced ischemic efflux of glutamate)
Procedure: Adatanserin was evaluated for its ability to reduce the azide-induced ischemic efflux of glutamate in rat hippocampal slices. Three Krebs buffers were used in the experiments. Normal Krebs buffer consisted of a solution containing the following: (122 mM NaCl, 3 mM KCl, 24 mM NaHCO3, 10 mM glucose, 0.315 mM K2HPO4, 1.2 mM MgSO4, 4 mM CaCl2). Aglycemic Krebs buffer was similar to the normal buffer with the exception that glucose was not added. Ischemic Krebs buffer was the aglycemic solution which contained varying concentrations of sodium azide (0 - 30 mM).
Rat hippocampi were dissected on a cold platform and suspended in ice cold oxygenated normal Krebs buffer. The tissue was cross-chopped at 350 microns on a Mcllwain tissue chopper, then resuspended and washed three times with ice cold normal Krebs buffer. […] Amino acid concentrations were analyzed with reverse phase HPLC on a catacholamine column (Keystone Scinetific, 150 x 3 mm) employing an 0.05 M acetate/methanol gradient. […] Amino acids were visualized by derivatization with naphthalene-2,3-dicarboxaldehyde and fluorimetric detection (Dawson, L. A. et al., Improved Temporal Resolution of Microdialysis Measurement of Glutamate and Aspartate Using Capillary Electrophoresis with Laser Induced Fluorescence Detection. J. Chromatogr. B 1997, 694, 1204-1212). […]

O=C(NCCN1CCN(c2ncccn2)CC1)C12CC3CC(CC(C3)C1)C2 [adatanserin, N-[2-[4-(2-pyrimidinyl)-1-piperazinyl]ethyl]tricyclo[3.3.1.13,7]decane-1-carboxamide]
inhibition at 0.1 µM (adatanserin 100 nM): 72% | inhibition at 1 µM (adatanserin 1000 nM (1 µM)): 71%
